Here are results for nine molecules from ChEMBL document CHEMBL1201862, “PubChem BioAssay data set” (2004).

The structures appear in SMILES notation.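 Protocol summary: plate cells (96-well), add compound at 5 concentrations, incubate 48 h, interpolate endpoints linearly. GI50: concentration for 50% inhibition of growth.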 The source made the active and inactive calls. Rule as the data show it: active = GI50 up to about 1.1 µM and inactive = higher. Where only a bound is given, the exact number is not on record here.

Among the test systems are A498; A549; HOP-62; LOX IMVI; MDA-MB-231; MDA-MB-435; MOLT-4; NCI-H226; NCI-H23; NCI-H522; NCI/ADR-RES; OVCAR-4; OVCAR-8; RPMI-8226; SK-MEL-28; SNB-75; SW-620; T47D; UACC-257; UACC-62.
Test in all cases: NCI tumour cell line growth inhibition, 48 h

Turning to `C=CC(COC(=O)C(C)(C)OC(C)=O)c1ccc(OC(=O)C(C)C)c(OC)c1` (stereo not given), the GI50 in the experiment on A498 is 17.2 µM (inactive); in the experiment with A549, 19.8 µM (inactive); with HOP-62, 10.1 µM (inactive); with LOX IMVI, 3.17 µM (inactive); in the experiment on MDA-MB-231, 2.64 µM (inactive); in the experiment with MDA-MB-435, 8.91 µM (inactive). Besides, the GI50 is 3.62 µM (inactive) in the experiment with MOLT-4; 18.2 µM (inactive) in the experiment with NCI-H226; 18.8 µM (inactive) in the experiment with NCI-H23; 2.23 µM (inactive) in the experiment on NCI-H522; 11 µM (inactive) in the experiment with NCI/ADR-RES; 7.89 µM (inactive) with OVCAR-4. Besides, the GI50 in the experiment with OVCAR-8 is 9.82 µM (inactive); in the experiment on RPMI-8226, 3.78 µM (inactive); with SK-MEL-28 it was 5.19 µM (inactive); in the experiment with SNB-75, 7.16 µM (inactive); in the experiment on SW-620, 4.84 µM (inactive); in the experiment with T47D it was 3.84 µM (inactive). In addition, the GI50 in the experiment with UACC-257 was 14.6 µM (inactive); with UACC-62, 11.8 µM (inactive).
Turning to `CC(=O)OC(C)(C)/C=C/C(=O)[C@](C)(O)[C@H]1[C@H](O)C[C@@]2(C)[C@@H]3CC=C4[C@@H](C[C@H](O)C(=O)C4(C)C)[C@]3(C)C(=O)C[C@]12C`, the GI50 in the experiment with A498 is < 0.01 µM (active); in the experiment on A549 it was < 0.01 µM (active); in the experiment on HOP-62, < 0.0111 µM (active); in the experiment on LOX IMVI, < 0.01 µM (active); in the experiment with MDA-MB-231, < 0.01 µM (active); with MDA-MB-435, < 0.01 µM (active). Moreover, the GI50 with MOLT-4 is 0.167 µM (active); in the experiment with NCI-H226, < 0.01 µM (active); in the experiment with NCI-H23, 0.0873 µM (active); in the experiment with NCI-H522, < 0.01 µM (active); in the experiment on NCI/ADR-RES it was 0.0112 µM (active); with OVCAR-4, < 0.01 µM (active). Further, the GI50 in the experiment on OVCAR-8 is 0.064 µM (active); in the experiment with RPMI-8226 it was < 0.01 µM (active); in the experiment with SK-MEL-28, < 0.01 µM (active); with SNB-75, < 0.01 µM (active); with SW-620 it was < 0.01 µM (active); in the experiment with T47D, 0.0362 µM (active). Besides, the GI50 with UACC-257 and with UACC-62 was < 0.01 µM (active) in each case.
As for `O=c1c2c3c(sc2nc2n1N=CN(c1ccccc1)C2)CCCC3`, the GI50 with A498, in the experiment on A549, in the experiment on HOP-62, in the experiment with LOX IMVI, in the experiment on MDA-MB-231 and in the experiment with MDA-MB-435 was > 100 µM (inactive) in each case. For the same molecule, the GI50 in the experiment on MOLT-4, in the experiment with NCI-H226, with NCI-H23, with NCI-H522, in the experiment with NCI/ADR-RES and in the experiment with OVCAR-4 was > 100 µM (inactive) throughout. Also, the GI50 in the experiment with OVCAR-8, in the experiment with RPMI-8226, with SK-MEL-28, in the experiment with SNB-75, in the experiment with SW-620 and in the experiment on T47D was > 100 µM (inactive) throughout. Also, the GI50 in the experiment with UACC-257 and in the experiment on UACC-62 was > 100 µM (inactive) throughout.
In the case of `Cc1c(Cl)c(C)c(Cl)c(O)c1Cl`, the GI50 is 19 µM (inactive) with A498; 21.2 µM (inactive) in the experiment with A549; 31.9 µM (inactive) in the experiment with HOP-62; 26.2 µM (inactive) with LOX IMVI; 27 µM (inactive) in the experiment with MDA-MB-231; 18.9 µM (inactive) in the experiment on MDA-MB-435. Moreover, the GI50 is 17.1 µM (inactive) with MOLT-4; 15.1 µM (inactive) in the experiment with NCI-H226; 28.1 µM (inactive) in the experiment on NCI-H23; 17.9 µM (inactive) with NCI-H522; 22.2 µM (inactive) in the experiment with NCI/ADR-RES; 26 µM (inactive) in the experiment on OVCAR-4. Further, the GI50 in the experiment with OVCAR-8 is 30.3 µM (inactive); in the experiment with RPMI-8226, 17.3 µM (inactive); in the experiment on SK-MEL-28, 38.4 µM (inactive); in the experiment on SNB-75, 23.9 µM (inactive); in the experiment on SW-620, 34.3 µM (inactive); in the experiment on T47D, 24.8 µM (inactive). Further, the GI50 with UACC-257 was 22.1 µM (inactive); with UACC-62, 16.7 µM (inactive).
Regarding `COc1ccc(C[C@@H]2OC3(C=CC(=O)C=C3)O[C@H]2Cc2ccc(OC)cc2)cc1`, the GI50 in the experiment on A498 was 5.53 µM (inactive); in the experiment with A549, 3.1 µM (inactive); in the experiment on HOP-62, 1.59 µM (inactive); in the experiment on LOX IMVI, 0.172 µM (active); in the experiment on MDA-MB-231, 1.39 µM (inactive); in the experiment with MDA-MB-435, 1.53 µM (inactive). For the same molecule, the GI50 in the experiment on MOLT-4 was 0.173 µM (active); in the experiment with NCI-H226, 0.232 µM (active); in the experiment on NCI-H23 it was 1.37 µM (inactive); with NCI-H522, 0.147 µM (active); in the experiment with NCI/ADR-RES it was 0.822 µM (active); with OVCAR-4, 0.957 µM (active). Moreover, the GI50 with OVCAR-8 was 0.193 µM (active); in the experiment with RPMI-8226 it was 0.202 µM (active); in the experiment with SK-MEL-28 it was 1.71 µM (inactive); with SNB-75, 1.68 µM (inactive); with SW-620, 0.114 µM (active); with T47D, 0.291 µM (active). Besides, the figures for the GI50 in the experiment with UACC-257 and with UACC-62 were 1.46 µM (inactive) and 1.72 µM (inactive), respectively.
In the case of `O=C1Oc2ccccc2C(=O)/C1=C/N1C(=O)/C(=C/c2ccc([N+](=O)[O-])cc2)SC1=S`, the GI50 is 7.91 µM (inactive) in the experiment with A498; 26.7 µM (inactive) in the experiment with A549; 18.2 µM (inactive) in the experiment with HOP-62; 29.6 µM (inactive) in the experiment with LOX IMVI; 24.9 µM (inactive) in the experiment with MDA-MB-231; 16.4 µM (inactive) with MDA-MB-435. Besides, the GI50 with MOLT-4 is 29.8 µM (inactive); with NCI-H226 it was 15.1 µM (inactive); with NCI-H23 it was 14 µM (inactive); in the experiment on NCI-H522, 20.7 µM (inactive); in the experiment with NCI/ADR-RES it was 23.7 µM (inactive); with OVCAR-4, 20.8 µM (inactive). The GI50 is 21.8 µM (inactive) with OVCAR-8; 5.65 µM (inactive) in the experiment with RPMI-8226; 22.7 µM (inactive) in the experiment on SK-MEL-28; 16.6 µM (inactive) with SNB-75; 21.8 µM (inactive) in the experiment with SW-620; 5.98 µM (inactive) in the experiment with T47D. Further, the values for the GI50 in the experiment with UACC-257 and in the experiment on UACC-62 were 25.8 µM (inactive) and 17.9 µM (inactive), respectively.
In the case of `N#Cc1ccc2[nH]c3c(c2c1)CC(=O)Nc1ccccc1-3` [PAULLONE 2], the GI50 with A498, in the experiment on A549, in the experiment with HOP-62, in the experiment with LOX IMVI, in the experiment on MDA-MB-231 and in the experiment on MDA-MB-435 was > 100 µM (inactive) throughout. Besides, the GI50 is > 100 µM (inactive) in the experiment with MOLT-4; > 100 µM (inactive) in the experiment on NCI-H226; > 100 µM (inactive) with NCI-H23; 28.8 µM (inactive) with NCI-H522; > 100 µM (inactive) in the experiment on NCI/ADR-RES; > 100 µM (inactive) with OVCAR-4. The GI50 in the experiment with OVCAR-8, in the experiment with RPMI-8226, with SK-MEL-28, with SNB-75, in the experiment on SW-620 and in the experiment with T47D was > 100 µM (inactive) throughout. Further, the GI50 with UACC-257 and in the experiment on UACC-62 was > 100 µM (inactive) throughout.
Regarding `CN(C)CCC(=O)N1C/C(=C\c2ccc(Cl)c(Cl)c2)C(=O)/C(=C/c2ccc(Cl)c(Cl)c2)C1`, the GI50 in the experiment with A498 was 1.32 µM (inactive); in the experiment with A549 it was 0.531 µM (active); with HOP-62, 0.303 µM (active); in the experiment on LOX IMVI, 0.1 µM (active); with MDA-MB-231, 0.127 µM (active); with MDA-MB-435, 0.347 µM (active). In addition, the GI50 in the experiment on MOLT-4 is 0.19 µM (active); in the experiment with NCI-H226, 0.705 µM (active); with NCI-H23, 0.504 µM (active); in the experiment on NCI-H522, 0.2 µM (active); in the experiment on NCI/ADR-RES it was 0.147 µM (active); in the experiment on OVCAR-4, 0.245 µM (active). In addition, the GI50 was 0.265 µM (active) with OVCAR-8; 0.074 µM (active) with RPMI-8226; 0.618 µM (active) in the experiment on SK-MEL-28; 0.415 µM (active) with SNB-75; 0.102 µM (active) with SW-620; 0.471 µM (active) in the experiment with T47D. Besides, the results for the GI50 in the experiment on UACC-257 and in the experiment on UACC-62 were 1.1 µM (active) and 0.608 µM (active), respectively.
Turning to `CCCOc1ccc(-c2nc(-c3ccc(/N=C/c4ccc(N(CCOS(C)(=O)=O)CCOS(C)(=O)=O)cc4C)cc3)cs2)cc1`, the GI50 in the experiment on A498 was 7.5 µM (inactive); in the experiment with A549, 4.59 µM (inactive); in the experiment on HOP-62, 8 µM (inactive); with LOX IMVI it was 14.9 µM (inactive); with MDA-MB-231 it was 34 µM (inactive); in the experiment with MDA-MB-435, 33.8 µM (inactive). Further, the GI50 in the experiment on MOLT-4 is 5.35 µM (inactive); in the experiment with NCI-H226, 22.9 µM (inactive); in the experiment with NCI-H23, 10.1 µM (inactive); in the experiment with NCI-H522 it was 2.16 µM (inactive); in the experiment on NCI/ADR-RES, 23.6 µM (inactive); in the experiment on OVCAR-4 it was 34.1 µM (inactive). The GI50 in the experiment with OVCAR-8 was 25.5 µM (inactive); in the experiment on RPMI-8226, 61.1 µM (inactive); in the experiment on SK-MEL-28, 67.9 µM (inactive); in the experiment with SNB-75 it was 2.78 µM (inactive); in the experiment with SW-620 it was 25.7 µM (inactive); in the experiment on T47D it was 26.9 µM (inactive). In addition, the GI50 was 38 µM (inactive) in the experiment on UACC-257 and 5.31 µM (inactive) with UACC-62.
